Where two headings read alike, the source gives them in different places.
Biological target: T1, NgTet1 (Naegleria gruberi, UniProt D2W6T1)
T1 construct: His6-tagged full-length Naegleria gruberi NgTet1 (321 a. a.) protein with a thrombin cleavage site; made in house; host or cells: E. coli BL21(DE3)
T1 sequence (D2W6T1 1-321): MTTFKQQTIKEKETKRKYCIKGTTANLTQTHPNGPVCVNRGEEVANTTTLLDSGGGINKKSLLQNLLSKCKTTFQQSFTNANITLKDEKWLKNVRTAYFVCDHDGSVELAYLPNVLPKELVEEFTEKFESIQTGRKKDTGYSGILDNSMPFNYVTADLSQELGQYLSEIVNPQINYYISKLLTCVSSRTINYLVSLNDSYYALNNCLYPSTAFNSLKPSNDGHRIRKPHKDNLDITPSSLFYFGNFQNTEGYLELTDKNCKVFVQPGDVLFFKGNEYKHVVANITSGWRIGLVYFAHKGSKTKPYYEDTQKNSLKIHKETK
Type: biochemical
Experimental: Double-stranded 12 bp DNA oligomers were added at a final concentration of 20 µM. […]
Double-stranded DNA oligomers were added at a final concentration of 20 µM. […]
All ^1H NMR spectra were recorded at 25 °C using D2O as a reference for internal deuterium lock on a Bruker Avance III 700 MHz equipped with an inverse TCI cryoprobe in 3 or 5 mm diameter tubes with a total sample volume of 160 or 565 μL, respectively. The water signal was reduced using Perfect Echo excitation sculpting suppression. Chemical shifts are reported in ppm relative to D2O (δH = 4.70 ppm).
Spectrometer settings were determined using a control sample containing all reaction components excluding enzyme. TET enzyme was added to an identical sample, and the resulting assay mixture was transferred to an NMR tube before deposition into the instrument. […] Spectrum recordings were carried out consecutively without delay. Data were processed using automated routines on MestReNova v14.2.0; signals of interest were integrated with absolute intensity scaling. ^1H NMR time courses reported in figures are representative results from two or three independent replicates.

AT DNA: double-stranded self-complementary 5'-ACC ACA TGT GGT-3', CpG replaced by ApT (DNA ACCACATGTGGT; DNA, backbone and methylation of C not given here; self-complementary duplex)
V0 NgTet1 (20 µM DNA, 100 μM 2OG, 5 μM NgTet1): 0.82 µM/min
succinate (n = 1, time (min) 5HC DNA 5.9, AT DNA 5.81667, 5mC DNA 5.78333): 4.127 µM
succinate (n = 1, time (min) 5HC DNA 8.98333, AT DNA 8.9, 5mC DNA 8.86667): 6.717 µM
succinate (n = 1, time (min) 5HC DNA 12.0667, AT DNA 11.9833, 5mC DNA 11.95): 10.1801 µM
succinate (n = 1, time (min) 5HC DNA 15.1333, AT DNA 15.0667, 5mC DNA 15.0333): 12.0396 µM
succinate (n = 1, time (min) 5HC DNA 18.2167, AT DNA 18.1333, 5mC DNA 18.1167): 14.7705 µM
succinate (n = 1, time (min) 5HC DNA 21.3667, AT DNA 21.2333, 5mC DNA 21.2): 16.3534 µM
succinate (n = 1, time (min) 5HC DNA 24.45, AT DNA 24.3167, 5mC DNA 24.2833): 18.4118 µM
succinate (n = 1, time (min) 5HC DNA 27.5333, AT DNA 27.3833, 5mC DNA 27.3667): 20.2156 µM
succinate (n = 1, time (min) 5HC DNA 30.6, AT DNA 30.4667, 5mC DNA 30.45): 21.7474 µM
succinate (n = 1, time (min) 5HC DNA 33.6833, AT DNA 33.55, 5mC DNA 33.5333): 22.2243 µM
succinate (n = 1, time (min) 5HC DNA 36.7667, AT DNA 36.6333, 5mC DNA 36.6167): 23.7117 µM
succinate (n = 1, time (min) 5HC DNA 39.85, AT DNA 39.7167, 5mC DNA 39.7): 24.5115 µM
succinate (n = 1, time (min) 5HC DNA 42.9333, AT DNA 42.8, 5mC DNA 42.7833): 26.1396 µM
succinate (n = 1, time (min) 5HC DNA 46.0167, AT DNA 45.8833, 5mC DNA 45.8667): 27.6473 µM
succinate (n = 1, time (min) 5HC DNA 49.0833, AT DNA 48.9667, 5mC DNA 48.95): 28.232 µM
succinate (n = 1, time (min) 5HC DNA 52.1667, AT DNA 52.05, 5mC DNA 52.0333): 29.053 µM
succinate (n = 1, time (min) 5HC DNA 55.25, AT DNA 55.1167, 5mC DNA 55.1167): 29.9694 µM
succinate (n = 1, time (min) 5HC DNA 58.3333, AT DNA 58.2, 5mC DNA 58.2): 30.8156 µM
succinate (n = 1, time (min) 5HC DNA 61.4, AT DNA 61.2833, 5mC DNA 61.2833): 32.4581 µM
succinate (n = 1, time (min) 5HC DNA 64.4833, AT DNA 64.3833, 5mC DNA 64.35): 32.8043 µM
succinate (n = 2, time (min) 5HC DNA 5.81667, AT DNA 5.61667, 5mC DNA 6.08333): 3.542 µM
succinate (n = 2, time (min) 5HC DNA 8.88333, AT DNA 8.7, 5mC DNA 9.16667): 5.909 µM
succinate (n = 2, time (min) 5HC DNA 12.0333, AT DNA 11.7833, 5mC DNA 12.25): 8.271 µM
succinate (n = 2, time (min) 5HC DNA 15.1167, AT DNA 14.8667, 5mC DNA 15.3167): 11.2722 µM
succinate (n = 2, time (min) 5HC DNA 18.1833, AT DNA 17.9333, 5mC DNA 18.4): 12.8044 µM
succinate (n = 2, time (min) 5HC DNA 21.2667, AT DNA 21.0167, 5mC DNA 21.4833): 14.5697 µM
succinate (n = 2, time (min) 5HC DNA 24.35, AT DNA 24.1, 5mC DNA 24.5667): 16.6119 µM
succinate (n = 2, time (min) 5HC DNA 27.4333, AT DNA 27.1833, 5mC DNA 27.65): 17.8887 µM
succinate (n = 2, time (min) 5HC DNA 30.5167, AT DNA 30.2667, 5mC DNA 30.7333): 19.2454 µM
succinate (n = 2, time (min) 5HC DNA 33.6, AT DNA 33.35, 5mC DNA 33.8167): 20.9427 µM
succinate (n = 2, time (min) 5HC DNA 36.6833, AT DNA 36.4333, 5mC DNA 36.9): 21.6807 µM
succinate (n = 2, time (min) 5HC DNA 39.7667, AT DNA 39.5167, 5mC DNA 39.9833): 23.2699 µM
succinate (n = 2, time (min) 5HC DNA 42.8333, AT DNA 42.6, 5mC DNA 43.0667): 23.7997 µM
succinate (n = 2, time (min) 5HC DNA 45.9167, AT DNA 45.6833, 5mC DNA 46.15): 25.1342 µM
succinate (n = 2, time (min) 5HC DNA 49, AT DNA 48.7667, 5mC DNA 49.2333): 26.0623 µM
succinate (n = 2, time (min) 5HC DNA 52.0833, AT DNA 51.85, 5mC DNA 52.3167): 26.9664 µM
succinate (n = 2, time (min) 5HC DNA 55.1667, AT DNA 54.9333, 5mC DNA 55.4): 27.9222 µM
succinate (n = 2, time (min) 5HC DNA 58.25, AT DNA 58.0167, 5mC DNA 58.4833): 28.2598 µM
succinate (n = 2, time (min) 5HC DNA 61.3333, AT DNA 61.1, 5mC DNA 61.5667): 29.5623 µM
succinate (n = 2, time (min) 5HC DNA 64.4167, AT DNA 64.1667, 5mC DNA 64.65): 30.2392 µM
Relative V0 NgTet1 (relative to reactions without DNA): 2.3

— paper PMC11662004 (Communications Chemistry, 2024)
